The record followed here is publication PMC10491774 (Cell Death & Disease, 2023).

As a reminder, the IC50 is the concentration at which inhibition is half-maximal.

In the experiment the target is 6-phosphofructo-2-kinase/fructose-2,6-bisphosphatase 3 (PFKFB3) (Homo sapiens, UniProt Q16875). Description: ADP-Glo kinase assay with purified recombinant human PFKFB3; partial inhibition, only by the Ca2+-free form; counter assay done. Type of experiment: biochemical. A general note: ADP-Glo turns the ADP formed in a reaction into a luminescent signal.
6-phosphofructo-2-kinase/fructose-2,6-bisphosphatase 3 (PFKFB3), sequence (Q16875 whole entry): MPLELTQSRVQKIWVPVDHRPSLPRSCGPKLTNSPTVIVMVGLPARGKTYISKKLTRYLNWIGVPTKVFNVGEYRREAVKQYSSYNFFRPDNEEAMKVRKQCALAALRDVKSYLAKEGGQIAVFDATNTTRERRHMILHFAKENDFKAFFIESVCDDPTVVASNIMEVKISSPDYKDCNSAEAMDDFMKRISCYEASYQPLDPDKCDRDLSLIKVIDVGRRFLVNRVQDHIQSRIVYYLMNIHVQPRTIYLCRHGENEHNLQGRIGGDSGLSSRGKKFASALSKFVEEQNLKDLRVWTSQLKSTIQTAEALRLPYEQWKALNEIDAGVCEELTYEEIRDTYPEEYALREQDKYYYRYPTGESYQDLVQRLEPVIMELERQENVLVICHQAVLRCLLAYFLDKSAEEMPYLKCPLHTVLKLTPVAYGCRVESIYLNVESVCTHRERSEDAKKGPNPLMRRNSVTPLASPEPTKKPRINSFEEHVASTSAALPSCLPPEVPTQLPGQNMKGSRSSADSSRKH

For `O=C(O)CN(CC(=O)O)c1ccccc1OCCOc1ccccc1N(CC(=O)O)CC(=O)O` [BAPTA, 1,2-Bis-(o-Aminophenoxy)-ethane-N,N,N’,N’-tetraacetic acid], the IC50 was 110 µM.
